pIC50: −log10 of the molar value.
Target: CDK2 (human) (UniProt P24941)
Assay: Enzyme Assay

pIC50 | SMILES
5.31 | CC(C)n1nnc2c(NCc3cccc(O)c3)nc(N[C@H]3CC[C@H](N)CC3)nc21
5.39 | CC(C)n1nnc2c(NCc3ccccc3O)nc(N[C@@H]3CCCC[C@@H]3N)nc21
< 4.00 | CC(C)n1nnc2c(NCc3ccccc3O)nc(NCc3ccccc3O)nc21
< 4.00 | O[C@H]1CC[C@H](Nc2nc(NCC3CCCCC3)c3nnn(Cc4ccccc4)c3n2)CC1
4.70 | CC(C)C(CO)Nc1nc(Nc2cccc(Cl)c2)c2nnn(C(C)C)c2n1 (stereo not given)
4.00 | CC(C)n1nnc2c(NCc3ccccc3)nc(NCCCO)nc21
5.96 | CC(C)n1nnc2c(Nc3cccc(Cl)c3)nc(N[C@H]3CC[C@H](N)CC3)nc21
< 4.00 | O[C@H]1CC[C@H](Nc2nc(Nc3cccc(Cl)c3)c3nnn(Cc4ccccc4)c3n2)CC1
5.55 | CC(C)n1nnc2c(NCc3ccc(O)cc3)nc(N[C@H]3CC[C@H](N)CC3)nc21
4.79 | CC(C)n1nnc2c(NCc3ccccc3O)nc(N[C@H]3CC[C@H](N)CC3)nc21
5.00 | CCC(CO)Nc1nc(NCc2cccc(O)c2)c2nnn(C(C)C)c2n1 (stereo not given)
5.39 | CCC(CO)Nc1nc(NCc2ccccc2)c2nnn(C(C)C)c2n1 (stereo not given)
< 4.00 | CCCCCCNc1nc(NC(CO)c2ccccc2)c2nnn(C(C)C)c2n1 (stereo not given)
5.14 | CC(C)C(CO)Nc1nc(NCc2ccccc2)c2nnn(C(C)C)c2n1 (stereo not given)
5.10 | CC(C)C(CO)Nc1nc(NCc2cccc(O)c2)c2nnn(C(C)C)c2n1 (stereo not given)
4.95 | CC(C)n1nnc2c(NCc3ccccc3)nc(N[C@H]3CC[C@H](N)CC3)nc21
5.92 | CCC(CO)Nc1nc(NCc2ccccc2O)c2nnn(C(C)C)c2n1 (stereo not given)
5.64 | CCC(CO)Nc1nc(NCc2ccc(OC)c(O)c2)c2nnn(C(C)C)c2n1 (stereo not given)
6.08 | CC(C)C(CO)Nc1nc(NCc2ccccc2O)c2nnn(C(C)C)c2n1 (stereo not given)
4.86 | COc1ccc(CNc2nc(N[C@@H]3CCCC[C@@H]3N)nc3c2nnn3C(C)C)cc1O

From the Kinase Knowledgebase extract (Sharma et al. 2016)
